Data taken from patent US20250304560A1, “MODULATORS OF NLRP3 INFLAMMASOME AND RELATED PRODUCTS AND METHODS” (Neumora Therapeutics, Inc., priority 2022, published 2025).
Where two headings read alike, the source gives them in different places.

Experiments:
IL-6 = IL-6 AlphaLISA in LPS-primed THP1 macrophages
NLRP3 inflammasome = NLRP3 inflammasome (Homo sapiens, UniProt Q96P20); test: NLRP3 inflammasome activation in THP1 macrophages, IL-1β AlphaLISA
[1] = Homo sapiens, THP-1, read-out: IL-6 Activity (μM)
[2] = Homo sapiens, THP-1, read-out: IL-6 Activity (μM), THP1 macrophages, PMA, LPS priming, nigericin 6.7 uM
[3] = IL-1β Activity (nM), THP1 macrophages, PMA, LPS priming, nigericin 6.7 uM activation
[4] = read-out: IL-6 Activity, THP1 macrophages, PMA, LPS priming, nigericin 6.7 uM

Sequence of NLRP3 inflammasome (Q96P20 whole entry): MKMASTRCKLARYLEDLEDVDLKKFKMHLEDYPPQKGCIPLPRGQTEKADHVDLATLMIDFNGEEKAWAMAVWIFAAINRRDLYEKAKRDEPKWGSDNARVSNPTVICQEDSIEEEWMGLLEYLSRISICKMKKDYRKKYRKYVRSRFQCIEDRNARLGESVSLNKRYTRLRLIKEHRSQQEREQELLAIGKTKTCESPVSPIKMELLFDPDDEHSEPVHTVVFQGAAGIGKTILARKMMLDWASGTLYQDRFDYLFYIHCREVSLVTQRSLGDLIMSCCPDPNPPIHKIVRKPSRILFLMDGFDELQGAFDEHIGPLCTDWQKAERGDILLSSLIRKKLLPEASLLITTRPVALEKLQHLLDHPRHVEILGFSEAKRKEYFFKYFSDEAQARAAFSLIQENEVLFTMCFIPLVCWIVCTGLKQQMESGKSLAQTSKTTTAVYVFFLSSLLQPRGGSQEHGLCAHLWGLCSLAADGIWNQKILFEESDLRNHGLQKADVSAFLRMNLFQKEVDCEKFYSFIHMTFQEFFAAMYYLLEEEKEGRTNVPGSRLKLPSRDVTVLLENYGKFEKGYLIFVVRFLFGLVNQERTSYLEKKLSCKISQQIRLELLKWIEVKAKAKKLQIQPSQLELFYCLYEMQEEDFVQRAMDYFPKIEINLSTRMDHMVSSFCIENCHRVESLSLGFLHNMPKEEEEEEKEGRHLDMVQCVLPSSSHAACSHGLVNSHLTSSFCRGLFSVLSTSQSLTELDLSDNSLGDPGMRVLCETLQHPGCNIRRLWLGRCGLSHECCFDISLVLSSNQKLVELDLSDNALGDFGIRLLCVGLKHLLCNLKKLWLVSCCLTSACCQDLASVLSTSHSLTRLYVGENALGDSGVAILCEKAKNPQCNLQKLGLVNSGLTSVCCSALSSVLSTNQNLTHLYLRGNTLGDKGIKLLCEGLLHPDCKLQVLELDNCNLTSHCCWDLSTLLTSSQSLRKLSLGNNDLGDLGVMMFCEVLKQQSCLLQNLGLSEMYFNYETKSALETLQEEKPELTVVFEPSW

SMILES | IC50 (IL-6; [1]) | IC50 (NLRP3 inflammasome) | IC50 (IL-6; [2]) | IC50 (NLRP3 inflammasome; [3]) | IC50 (IL-6; [4])
Cc1cc(-c2c(C)cccc2O)nnc1N[C@@H]1CCCN(C)C1 [compound 78] | – | – | > 10 µM | 1 to 10 nM | –
Cc1cc(-c2ccc(N(C)[C@@H]3CCCN(C)C3)nn2)c(O)cc1F [compound 25] | – | – | 1 to 5 µM | > 1000 nM | –
Cc1cc(-c2ccc(Cl)cc2O)nnc1N[C@@H]1CCCN(C)C1 [compound 83] | – | – | – | 1 to 10 nM | –
Cc1cc(F)cc(O)c1-c1ccc(O[C@@H]2CCCN(C)C2)nn1 [compound 72] | > 10 µM | 10 to 100 nM | – | – | –
Cc1cc(N[C@@H]2CCCN(CCF)C2)nnc1-c1ccccc1O [compound 39] | – | – | > 10 µM | 10 to 100 nM | –
CCN1CCC[C@@H](Nc2cc(C)c(-c3ccccc3O)nn2)C1 [compound 56] | – | – | > 10 µM | < 1 nM | –
Cc1cc(N(C)[C@@H]2CCCN(C)C2)nnc1-c1ccc(F)c(C)c1O [compound 64] | – | – | > 10 µM | 1 to 10 nM | –
Cc1cc(N(C)[C@@H]2CCCN(C)C2)nnc1-c1ccccc1O [compound 23] | – | – | > 10 µM | 10 to 100 nM | –
Cc1cc(N(C)[C@@H]2CCCN(C)C2)nnc1-c1ccc(F)cc1O [compound 26] | – | – | > 10 µM | 1 to 10 nM | –
Cc1c(F)ccc(-c2ccc(N[C@@H]3CCCN(C)C3)nn2)c1O [compound 10] | – | – | 5 to 10 µM | 10 to 100 nM | –
Cc1cccc(-c2ccc(N[C@@H]3CCCN(C)C3)nn2)c1O [compound 5] | – | – | > 10 µM | 1 to 10 nM | –
Cc1cc(-c2nnc(N(C)[C@@H]3CCCN(C)C3)cc2C)c(O)cc1F [compound 66] | – | – | 5 to 10 µM | 100 to 500 nM | –
Cc1cc(F)cc(O)c1-c1ccc(N[C@@H]2CCCN(C)C2)nn1 [compound 6] | – | – | 5 to 10 µM | < 1 nM | –
Cc1cc(-c2ccc(F)c(C)c2O)nnc1N[C@@H]1CCCN(C)C1 [compound 80] | – | – | 5 to 10 µM | 1 to 10 nM | –
CN1CC[C@@H](N(C)c2ccc(-c3ccccc3O)nn2)C1 [compound 33] | > 10 µM | > 1000 nM | – | – | –
Cc1cc(N[C@H]2CN(C)CC[C@@H]2F)nnc1-c1ccccc1O [compound 43] | – | – | > 10 µM | 10 to 100 nM | –
Cc1cc(N[C@H]2CN(C)CC(F)(F)C2)nnc1-c1ccccc1O [compound 40] | – | – | > 10 µM | 500 to 1000 nM | –
Cc1cc(C[C@@H]2CCCN(C)C2)nnc1-c1ccc(C(F)(F)F)cc1O [compound 37] | > 10 µM | 500 to 1000 nM | – | – | –
CCc1ccc(-c2cc(C)c(N[C@@H]3CCCN(C)C3)nn2)c(O)c1 [compound 16] | – | – | – | 1 to 10 nM | –
CN1CCC[C@@H](Nc2cc(F)c(-c3ccccc3O)nn2)C1 [compound 52] | – | – | > 10 µM | 1 to 10 nM | –
Cc1cc(-c2nnc(N[C@@H]3CCCN(C)C3)cc2C)c(O)cc1F [compound 65] | – | – | > 10 µM | 1 to 10 nM | –
Cc1cc(N[C@@H]2CCCN(CCF)C2)nnc1-c1ccc(F)cc1O [compound 44] | – | – | > 10 µM | 1 to 10 nM | –
Cc1cc(N[C@@H]2CCCN(C)C2)nnc1-c1c(C)cccc1O [compound 69] | – | – | 5 to 10 µM | 1 to 10 nM | –

SMILES | IC50 (IL-6; [1]) | IC50 (NLRP3 inflammasome) | IC50 (IL-6; [2]) | IC50 (NLRP3 inflammasome; [3]) | IC50 (IL-6; [4])
Cc1c(F)ccc(-c2ccc(N(C)[C@@H]3CCCN(C)C3)nn2)c1O [compound 24] | – | – | 1 to 5 µM | 10 to 100 nM | –
Cc1ccc(O)c(-c2ccc(N(C)[C@@H]3CCCN(C)C3)nn2)c1 [compound 19] | – | – | 5 to 10 µM | > 1000 nM | –
Cc1cc(-c2ccc(N[C@@H]3CCCN(C)C3)nn2)c(O)cc1F [compound 9] | – | – | > 10 µM | 100 to 500 nM | –
Cc1cc(N[C@H]2CN(C)CC[C@H]2F)nnc1-c1ccccc1O [compound 50] | – | – | > 10 µM | 10 to 100 nM | –
CCc1cc(C)c(-c2ccc(N[C@@H]3CCCN(C)C3)nn2)c(O)c1 [compound 12] | – | – | > 10 µM | < 1 nM | –
Cc1cc(C2CC2)cc(O)c1-c1ccc(N[C@@H]2CCCN(C)C2)nn1 [compound 13] | > 10 µM | 1 to 10 nM | – | – | –
Cc1cc(-c2nnc(N[C@@H]3CCCN(C)C3)cc2C)c(O)cc1C(F)(F)F [compound 76] | – | – | 5 to 10 µM | 1 to 10 nM | –
CN1CC[C@@H](N(C)c2ccc(-c3ccc(F)cc3O)nn2)C1 [compound 32] | > 10 µM | > 1000 nM | – | – | –
CN1CCC[C@@H](N(C)c2ccc(-c3ccccc3O)nn2)C1 [compound 17] | – | – | > 10 µM | > 1000 nM | –
CCN1CCC[C@@H](Nc2ccc(-c3c(C)cc(F)cc3O)nn2)C1 [compound 60] | – | – | > 10 µM | < 1 nM | –
Cc1cc(C[C@@H]2CCCN(C)C2)nnc1-c1ccc(F)cc1O [compound 36, (S)-5-fluoro-2-(4-methyl-6-((1-methylpiperidin-3-yl)methyl)pyridazin-3-yl) phenol] | > 10 µM | 10 to 100 nM | – | – | –
CN1CC[C@@H](Nc2ccc(-c3ccc(F)cc3O)nn2)C1 [compound 30] | – | – | > 10 µM | > 1000 nM | –
Cc1cc(N[C@@H]2C[C@@H](F)CN(C)C2)nnc1-c1ccccc1O [compound 41] | – | – | – | 10 to 100 nM | –
Cc1cc(N[C@@H]2C[C@H](F)CN(C)C2)nnc1-c1ccc(F)cc1O [compound 47] | – | – | > 10 µM | 10 to 100 nM | –
CN1CC[C@@H](Nc2ccc(-c3ccccc3O)nn2)C1 [compound 31] | – | – | > 10 µM | > 1000 nM | –
Cc1cc(N[C@@H]2C[C@H](F)CN(C)C2)nnc1-c1ccccc1O [compound 42] | – | – | > 10 µM | 10 to 100 nM | –
Cc1cc(N[C@@H]2CCCN(C)C2)nnc1-c1ccc(F)c(C)c1O [compound 38] | – | – | – | 1 to 10 nM | 1 to 5 µM
Cc1cc(N[C@@H]2CCCN(C)C2)nnc1-c1ccc(F)c(C)c1O [compound 63] | – | – | – | < 1 nM | > 10 µM
Cc1cc(N[C@@H]2CCCN(C)C2)nnc1-c1c(C)cc(F)cc1O [compound 62] | – | – | > 10 µM | 1 to 10 nM | –
Cc1cc(O[C@@H]2CCCN(C)C2)nnc1-c1ccccc1O [compound 71] | > 10 µM | 10 to 100 nM | – | – | –
Cc1cc(-c2ccc(C(F)(F)F)cc2O)nnc1N[C@@H]1CCCN(C)C1 [compound 74] | – | – | > 10 µM | – | –
Cc1cc(C(F)(F)F)cc(O)c1-c1ccc(N[C@@H]2CCCN(C)C2)nn1 [compound 75] | > 10 µM | – | – | – | –

Further lines, results first:

IC50 (IL-6; [1]) | IC50 (NLRP3 inflammasome) | IC50 (IL-6; [2]) | IC50 (NLRP3 inflammasome; [3]) | IC50 (IL-6; [4]) | SMILES
> 10 µM | > 1000 nM | – | – | – | Cc1cc(-c2ccccc2O)nnc1O[C@@H]1CCCN(C)C1 [compound 99]
> 10 µM | 100 to 500 nM | – | – | – | Cc1cc(-c2ccc(C(F)(F)F)cc2O)nnc1O[C@@H]1CCCN(C)C1 [compound 98]
> 10 µM | > 1000 nM | – | – | – | Cc1cc(C[C@H]2CCCN(C)C2)nnc1-c1ccc(F)cc1O [compound 106, (R)-5-fluoro-2-(4-methyl-6-((1-methylpiperidin-3-yl)methyl)pyridazin-3-yl) phenol]
– | > 1000 nM | – | – | – | Cc1cc(NC[C@H]2COCCO2)nnc1-c1ccccc1O [compound 119]
– | – | > 10 µM | > 1000 nM | – | Cc1cc(N[C@@H]2CC[C@@H](C(=O)O)N(C)C2)nnc1-c1ccccc1O [compound 95]
> 10 µM | 100 to 500 nM | – | – | – | Cc1cc(N[C@@H]2CCCN(C)C2)nnc1-c1ncccc1O [compound 108]
> 10 µM | < 1 nM | – | – | – | Cc1cc(N[C@@H]2CCCN(C)C2)nnc1-c1ncc(C(F)(F)F)cc1O [compound 107]
> 10 µM | > 1000 nM | – | – | – | Cc1cc(N2CCC[C@@H](N(C)C)C2)nnc1-c1ccc(C#N)cc1O [compound 112]
– | – | > 10 µM | > 1000 nM | – | Cc1cc(N[C@@H]2CC[C@@H](C(=O)O)NC2)nnc1-c1ccccc1O [compound 94]
> 10 µM | > 1000 nM | – | – | – | Cc1cc(-c2ccc(C#N)cc2O)nnc1O[C@@H]1CCCN(C)C1 [compound 101]
> 10 µM | > 1000 nM | – | – | – | Cc1cc(NC[C@@H]2CCCN2C)nnc1-c1ccccc1O [compound 121]
> 10 µM | > 1000 nM | – | – | – | Cc1cc(NC[C@@H]2CCC(F)(F)C2)nnc1-c1ccccc1O [compound 114]
> 10 µM | > 1000 nM | – | – | – | Cc1cc(C[C@H]2CCCN(C)C2)nnc1-c1ccccc1O [compound 105]
> 10 µM | 500 to 1000 nM | – | – | – | Cc1cc(NC[C@@H]2CCCO2)nnc1-c1ccccc1O [compound 117]
> 10 µM | > 1000 nM | – | – | – | COC(C)(C)CNc1cc(C)c(-c2ccccc2O)nn1 [compound 124]
> 10 µM | > 1000 nM | – | – | – | Cc1cc(NCC23CC(CO2)C3)nnc1-c1ccccc1O [compound 118]
> 10 µM | > 1000 nM | – | – | – | Cc1cc(NCC2CCOCC2)nnc1-c1ccccc1O [compound 115]
– | – | > 10 µM | > 1000 nM | – | Cc1cc(-c2ccc(C(=O)O)cc2O)nnc1N[C@@H]1CCCN(C)C1 [compound 93]
– | – | > 10 µM | 10 to 100 nM | – | Cc1cc(N[C@@H]2CCCN(C)C2)nnc1-c1ccc(C(=O)O)cc1O [compound 92]
– | – | > 10 µM | > 1000 nM | – | Cc1cc(-c2ccccc2O)nnc1N[C@@H]1CCCN(CCF)C1 [compound 85]
> 10 µM | > 1000 nM | – | – | – | Cc1cc(NC[C@H]2CCCN2C)nnc1-c1ccccc1O [compound 122]
– | – | > 10 µM | 10 to 100 nM | – | Cc1cc(-c2ccc(C#N)cc2O)nnc1N[C@@H]1CCCN(C)C1 [compound 91]
> 10 µM | > 1000 nM | – | – | – | Cc1cc(NC[C@H]2CCCO2)nnc1-c1ccccc1O [compound 116]
– | – | > 10 µM | < 1 nM | – | Cc1cc(N(C)[C@@H]2CCCN(C)C2)nnc1-c1ccc(C#N)cc1O [compound 90]
> 10 µM | 100 to 500 nM | – | – | – | Cc1cc(N2CCC[C@@H](N(C)C)C2)nnc1-c1ccccc1O [compound 111]
> 10 µM | 1 to 10 nM | – | – | – | Cc1cc(C[C@H]2CCCN(C)C2)nnc1-c1ccc(C(F)(F)F)cc1O [compound 104]
5 to 10 µM | 100 to 500 nM | – | – | – | Cc1cc(N[C@@H]2CCCN(C)C2)nnc1-c1ncc(F)cc1O [compound 109]
